Measurements published in ChEMBL document CHEMBL1909046, “DrugMatrix in vitro pharmacology data”.

Tests used:
[1] = molecular target: Sodium-dependent noradrenaline transporter (Homo sapiens, UniProt P23975); test: DRUGMATRIX: Norepinephrine Transporter radioligand binding (ligand: [125I] RTI-55); assay type: cell membranes, MDCK, Membrane; conditions: mdck; Not Active = under 50% inhibition at 10 µM
[2] = molecular target: 5-hydroxytryptamine receptor 2B (Homo sapiens, UniProt P41595); assay type: cell membranes, CHO-K1, Membrane; conditions: cho-k1; further: in other assays of this panel Not Active means under 50% inhibition at 10 µM
5-hydroxytryptamine receptor 2B, sequence (P41595 whole entry): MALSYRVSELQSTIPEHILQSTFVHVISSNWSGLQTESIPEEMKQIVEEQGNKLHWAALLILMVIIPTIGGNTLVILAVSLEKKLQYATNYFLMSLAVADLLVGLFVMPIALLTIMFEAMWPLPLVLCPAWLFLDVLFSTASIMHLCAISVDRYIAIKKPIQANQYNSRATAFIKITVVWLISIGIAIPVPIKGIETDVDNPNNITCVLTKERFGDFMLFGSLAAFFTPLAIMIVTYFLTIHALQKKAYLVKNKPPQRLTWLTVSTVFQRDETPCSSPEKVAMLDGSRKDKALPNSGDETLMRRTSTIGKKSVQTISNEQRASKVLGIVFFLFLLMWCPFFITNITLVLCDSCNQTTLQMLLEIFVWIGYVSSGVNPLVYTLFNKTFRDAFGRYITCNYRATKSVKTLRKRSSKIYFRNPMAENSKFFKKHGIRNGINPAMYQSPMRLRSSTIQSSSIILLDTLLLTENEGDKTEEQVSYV

Progesterone receptor = molecular target: T1, Progesterone receptor (Bos taurus, UniProt Q690N0); test: DRUGMATRIX: Progesterone radioligand binding (ligand: [3H] R-5020); assay type: tissue-based, Uterus; conditions: Not Active = under 50% inhibition at 10 µM
T1 sequence (Q690N0 whole entry): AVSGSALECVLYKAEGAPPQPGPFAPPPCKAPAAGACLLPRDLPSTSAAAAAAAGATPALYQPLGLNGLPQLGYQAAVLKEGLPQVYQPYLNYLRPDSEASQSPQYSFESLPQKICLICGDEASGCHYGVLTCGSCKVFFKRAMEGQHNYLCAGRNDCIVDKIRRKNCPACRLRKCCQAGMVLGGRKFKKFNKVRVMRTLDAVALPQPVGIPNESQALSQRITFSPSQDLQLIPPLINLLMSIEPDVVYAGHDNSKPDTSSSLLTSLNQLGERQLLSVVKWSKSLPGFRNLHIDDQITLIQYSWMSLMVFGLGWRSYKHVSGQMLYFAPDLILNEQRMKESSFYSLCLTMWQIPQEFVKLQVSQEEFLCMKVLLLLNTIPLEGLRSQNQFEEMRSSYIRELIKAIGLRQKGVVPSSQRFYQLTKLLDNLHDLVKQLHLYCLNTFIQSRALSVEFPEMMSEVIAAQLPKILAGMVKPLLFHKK

Glucocorticoid receptor = molecular target: T2, Glucocorticoid receptor (Homo sapiens, UniProt P04150); conditions: hela s3; further: in other assays of this panel Not Active means under 50% inhibition at 10 µM
T2 sequence (P04150 whole entry): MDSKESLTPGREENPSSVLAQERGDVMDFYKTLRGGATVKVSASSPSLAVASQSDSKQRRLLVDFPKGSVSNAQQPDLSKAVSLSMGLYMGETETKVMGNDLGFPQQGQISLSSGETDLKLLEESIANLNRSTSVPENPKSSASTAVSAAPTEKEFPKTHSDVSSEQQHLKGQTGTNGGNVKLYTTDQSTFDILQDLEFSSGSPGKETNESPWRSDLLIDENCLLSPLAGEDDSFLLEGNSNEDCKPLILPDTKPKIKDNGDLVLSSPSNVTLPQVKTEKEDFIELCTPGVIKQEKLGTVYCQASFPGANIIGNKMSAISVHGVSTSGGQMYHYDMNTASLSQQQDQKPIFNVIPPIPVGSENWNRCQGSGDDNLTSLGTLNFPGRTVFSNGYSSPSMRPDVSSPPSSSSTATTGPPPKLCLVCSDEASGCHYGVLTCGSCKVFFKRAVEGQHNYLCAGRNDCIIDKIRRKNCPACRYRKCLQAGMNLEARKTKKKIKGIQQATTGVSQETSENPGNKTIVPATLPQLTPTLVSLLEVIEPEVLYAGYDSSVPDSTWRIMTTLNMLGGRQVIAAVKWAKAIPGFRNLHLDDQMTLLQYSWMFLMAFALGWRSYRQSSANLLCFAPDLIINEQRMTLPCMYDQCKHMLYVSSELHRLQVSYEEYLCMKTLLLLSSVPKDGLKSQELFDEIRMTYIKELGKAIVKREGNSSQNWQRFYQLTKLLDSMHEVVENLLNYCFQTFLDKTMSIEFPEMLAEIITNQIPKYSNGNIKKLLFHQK

Cytochrome P450 1A2 = molecular target: T3, Cytochrome P450 1A2 (Homo sapiens, UniProt P05177); conditions: bti-tn-5b1-4; further: in other assays of this panel Not Active means under 50% inhibition at 10 µM
T3 sequence (P05177 whole entry): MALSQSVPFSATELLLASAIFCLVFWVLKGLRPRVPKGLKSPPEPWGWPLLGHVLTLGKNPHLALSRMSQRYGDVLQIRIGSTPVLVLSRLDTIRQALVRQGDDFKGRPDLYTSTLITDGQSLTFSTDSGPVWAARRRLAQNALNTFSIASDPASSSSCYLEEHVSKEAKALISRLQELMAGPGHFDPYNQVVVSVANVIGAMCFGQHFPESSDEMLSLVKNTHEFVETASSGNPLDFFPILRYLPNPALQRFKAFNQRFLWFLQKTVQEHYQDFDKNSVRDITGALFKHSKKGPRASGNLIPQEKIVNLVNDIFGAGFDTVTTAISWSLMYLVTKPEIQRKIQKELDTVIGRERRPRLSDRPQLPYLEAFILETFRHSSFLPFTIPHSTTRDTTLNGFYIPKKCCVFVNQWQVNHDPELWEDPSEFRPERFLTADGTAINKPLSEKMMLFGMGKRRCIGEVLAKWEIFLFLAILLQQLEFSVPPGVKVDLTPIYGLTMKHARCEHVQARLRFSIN

Cytochrome P450 2C19 = Cytochrome P450 2C19 (Homo sapiens, UniProt P33261); conditions: bti-tn-5b1-4; further: in other assays of this panel Not Active means under 50% inhibition at 10 µM
Cytochrome P450 2C19, sequence (P33261 whole entry): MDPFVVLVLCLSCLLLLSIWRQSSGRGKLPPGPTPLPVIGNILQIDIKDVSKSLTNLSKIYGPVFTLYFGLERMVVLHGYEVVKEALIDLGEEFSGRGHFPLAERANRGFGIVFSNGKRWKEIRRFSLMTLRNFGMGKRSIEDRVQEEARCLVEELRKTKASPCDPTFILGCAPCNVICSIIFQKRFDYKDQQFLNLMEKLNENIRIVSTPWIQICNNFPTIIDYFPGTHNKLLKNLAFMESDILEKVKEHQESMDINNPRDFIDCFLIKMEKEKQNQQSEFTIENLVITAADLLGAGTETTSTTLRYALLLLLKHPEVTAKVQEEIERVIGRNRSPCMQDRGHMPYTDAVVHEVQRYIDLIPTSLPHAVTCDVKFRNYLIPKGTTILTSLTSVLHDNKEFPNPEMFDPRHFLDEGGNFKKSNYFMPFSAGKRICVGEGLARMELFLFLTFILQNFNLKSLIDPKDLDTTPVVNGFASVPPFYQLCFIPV

Cytochrome P450 2E1 = Cytochrome P450 2E1 (Homo sapiens, UniProt P05181); conditions: bti-tn-5b1-4; further: in other assays of this panel Not Active means under 50% inhibition at 10 µM
Cytochrome P450 2E1, sequence (P05181 whole entry): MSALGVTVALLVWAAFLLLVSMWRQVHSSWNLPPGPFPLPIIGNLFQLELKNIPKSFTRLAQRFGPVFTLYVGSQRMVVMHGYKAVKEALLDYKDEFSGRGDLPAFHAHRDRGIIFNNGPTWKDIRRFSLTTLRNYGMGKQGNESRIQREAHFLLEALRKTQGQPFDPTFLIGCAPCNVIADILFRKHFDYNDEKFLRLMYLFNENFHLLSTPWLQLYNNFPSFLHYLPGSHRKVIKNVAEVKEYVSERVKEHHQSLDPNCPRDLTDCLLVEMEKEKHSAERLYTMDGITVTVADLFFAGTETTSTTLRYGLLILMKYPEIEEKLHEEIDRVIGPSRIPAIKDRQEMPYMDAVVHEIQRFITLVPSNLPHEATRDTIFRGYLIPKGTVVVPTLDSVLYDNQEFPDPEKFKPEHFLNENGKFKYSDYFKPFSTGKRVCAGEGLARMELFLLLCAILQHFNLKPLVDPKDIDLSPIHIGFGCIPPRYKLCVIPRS

Sodium-dependent noradrenaline transporter, sequence (P23975 whole entry): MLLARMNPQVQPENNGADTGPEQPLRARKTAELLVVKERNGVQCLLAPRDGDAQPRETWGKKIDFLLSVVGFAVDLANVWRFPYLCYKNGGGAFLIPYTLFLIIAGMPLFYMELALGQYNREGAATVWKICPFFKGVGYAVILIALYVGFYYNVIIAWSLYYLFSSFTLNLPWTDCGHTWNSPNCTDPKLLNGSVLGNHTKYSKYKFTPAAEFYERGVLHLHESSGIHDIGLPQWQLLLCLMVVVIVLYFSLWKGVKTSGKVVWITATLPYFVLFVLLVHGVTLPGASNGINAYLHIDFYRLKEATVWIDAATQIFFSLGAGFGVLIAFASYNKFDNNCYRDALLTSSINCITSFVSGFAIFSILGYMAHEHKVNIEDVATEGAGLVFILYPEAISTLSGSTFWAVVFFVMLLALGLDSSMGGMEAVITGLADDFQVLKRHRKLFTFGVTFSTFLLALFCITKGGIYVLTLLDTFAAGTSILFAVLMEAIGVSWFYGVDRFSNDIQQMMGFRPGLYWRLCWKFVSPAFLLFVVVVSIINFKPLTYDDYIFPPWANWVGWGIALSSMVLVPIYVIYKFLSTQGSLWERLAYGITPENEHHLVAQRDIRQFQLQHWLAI

Row | Compound | IC50 [1] | IC50 [2] | IC50 (Progesterone receptor) | IC50 (Glucocorticoid receptor) | IC50 (Cytochrome P450 1A2) | Ki (Cytochrome P450 1A2) | IC50 (Cytochrome P450 2C19) | Ki (Cytochrome P450 2C19) | IC50 (Cytochrome P450 2E1) | Ki (Cytochrome P450 2E1) | IC50 (Progesterone receptor; read-out: IC50) | Ki (Progesterone receptor; read-out: Ki)
1 | CN1C(=O)OC(C)(C)C1=O [TRIMETHADIONE] | Not Active | Not Active | Not Active | Not Active | Not Active | Not Active | Not Active | Not Active | Not Active | Not Active | – | –
2 | C[C@]12CCC(=O)C[C@@H]1CC[C@@H]1[C@@H]2CC[C@]2(C)[C@@H](O)CC[C@@H]12 [STANOLONE] | Not Active | Not Active | – | Not Active | Not Active | Not Active | Not Active | Not Active | Not Active | Not Active | 1250 nM | 163 nM
3 | COC(=O)Nc1nc2ccc(C(=O)c3ccccc3)cc2[nH]1 [MEBENDAZOLE] | Not Active | Not Active | Not Active | Not Active | Not Active | Not Active | Not Active | Not Active | Not Active | Not Active | – | –
4 | O=[As][O-].[Na+] [SODIUM ARSENITE] | Not Active | Not Active | Not Active | Not Active | Not Active | Not Active | Not Active | Not Active | Not Active | Not Active | – | –
5 | CS(=O)(=O)c1ccc(C2=C(c3ccccc3)C(=O)OC2)cc1 [ROFECOXIB] | Not Active | Not Active | Not Active | Not Active | Not Active | Not Active | Not Active | Not Active | Not Active | Not Active | – | –
6 | CC1(C)[C@H](C(=O)O)N2C(=O)C[C@H]2S1(=O)=O [SULBACTAM] | Not Active | Not Active | Not Active | Not Active | Not Active | Not Active | Not Active | Not Active | Not Active | Not Active | – | –
7 | CC(N)C12CC3CC(CC(C3)C1)C2 (configuration not stated) [RIMANTADINE] | Not Active | Not Active | Not Active | Not Active | Not Active | Not Active | Not Active | Not Active | Not Active | Not Active | – | –
8 | CC[C@H](C)C(=O)O[C@H]1CCC=C2C=C[C@H](C)[C@H](CC[C@@H]3C[C@@H](O)CC(=O)O3)[C@H]21 [MEVASTATIN] | Not Active | Not Active | Not Active | Not Active | Not Active | Not Active | Not Active | Not Active | Not Active | Not Active | – | –
9 | O=C(OC[C@H]1O[C@@H](OC(=O)c2cc(O)c(O)c(OC(=O)c3cc(O)c(O)c(O)c3)c2)[C@H](OC(=O)c2cc(O)c(O)c(OC(=O)c3cc(O)c(O)c(O)c3)c2)[C@@H](OC(=O)c2cc(O)c(O)c(OC(=O)c3cc(O)c(O)c(O)c3)c2)[C@@H]1OC(=O)c1cc(O)c(O)c(OC(=O)c2cc(O)c(O)c(O)c2)c1)c1cc(O)c(O)c(OC(=O)c2cc(O)c(O)c(O)c2)c1 [TANNIC ACID] | Not Active | Not Active | Not Active | Not Active | – | – | Not Active | Not Active | Not Active | Not Active | – | –
10 | C=CCc1ccc2c(c1)OCO2 [SAFROLE] | Not Active | Not Active | Not Active | Not Active | – | – | Not Active | Not Active | Not Active | Not Active | – | –
